{"source": "patent US20120213707A1", "about": "“Riboflavin Based Aerosol and Use as Placebo in Trials” (MPEX PHARMACEUTICALS, INC., priority 2009, published 2012)", "origin": "cited, not measured here", "tested_on": "men and women with a history of recurrent migraine headaches", "details": "cited from earlier work", "data": [{"compound": "Cc1cc2nc3c(=O)[nH]c(=O)nc-3n(C[C@H](O)[C@H](O)[C@H](O)CO)c2cc1C", "note": "[riboflavin]", "values": [{"measurement": "median migraine attack frequency", "setting": "400 mg of riboflavin daily for three months, 23 patients, Boehnke 2004", "result": "reduction in median migraine attack frequency"}, {"measurement": "migraine attack frequency and number of headache days versus placebo", "setting": "400 mg of riboflavin/day for three months, 54 men and women, Schoenen 1998", "result": "significantly better than placebo"}, {"measurement": "clinical outcome in migraine", "setting": "high-dose riboflavin, Sandor 2000", "result": "clinical improvement"}]}]}
